Laboratory results reported in US20080090780A1, “Storage stable azadirachtin pesticide formulation” (PBI/GORDON CORPORATION, priority 2006, published 2008).
Where two headings read alike, the source gives them in different places.

Experiments:
potato aphids = experiment: Greenhouse tests on live potato aphids on tomatoes; format: in vivo; conditions: Azadirachtin 0.0008 lbs/gal, bifenthrin 0.005 lbs/gal, combination as labelled
[1] = format: physicochemical; conditions: for % Decomposition of AZA A and PYR: JeffSol AG-1555, Triton X-100; for loss of AZA A: AZA alone without incorporation of a PYR (Table 2)
Source text: This invention relates to a storage stable, efficacious pesticide formulation dilutable by the user that contains azadirachtin made up of azadirachtin A and azadirachtin B, a pyrethrin or pyrethroid, a solvent, and an emulsifier. The pyrethrin or pyrethroid complexes with and minimizes decomposition of the azadirachtin A. An amount of the pyrethrin or pyrethroid is incorporated to form a complex with the azadirachtin A on opposite sides of the molecular structure thereof. […] Preferably, an aprotic heterocyclic or mono, di-, or polycyclic aromatic solvent is provided having C2-C25 carbon atoms and that is compatible with the azadirachtin A and pyrethrin or pyrethroid. In addition, a non-ionic emulsifier is preferably included in the formulation.
When a PYR was added to AZA A, the decomposition pathway of AZA A was stabilized, as shown by Table 2.
FIG. 1 is a plot of the percent AZA A decomposition on the Y-axis, as compared with the mole ratio of bifenthrin/AZA A on the X-axis, under an accelerated aging test of 30 days at 40° C. The loss of AZA A decreased as the mole ratio of PYR to AZA A approached 2:1, where the PYR was present in an amount to form a complex with the AZA A on opposite sides of the molecular structure thereof and sufficient to prevent further decomposition of the AZA A.
FIG. 3 compares the percent of AZA A decomposition on the Y-axis with the mole ratio of zeta cypermethrin to AZA A on the X-axis, also under an accelerated aging test of 30 days at 40° C.

[2] = Azadirachtin stability tests in seed oil carrier (soybean oil / Tween 85 containing 5% water); format: physicochemical; conditions: Soybean Oil (50% Seed Oil/50% Tween 85 containing 5% water), 40° C., 32 Days
Source text: AZA plus PYRs have been studied in conventional oil systems, such as soybean oil, canola oil, methylated soybean oil, epoxidized soybean oil, rape seed oil, and olive oil, all of which contained an emulsifier having as much as 5% of water. None of these oils in combination with the PYR stabilized the AZA A in the formulation, largely because of the presence of moisture in the emulsifier. When AZA is combined with PYR and the types of solvents and emulsifiers disclosed herein, the AZA A of the formulation is stabilized. Table 9 records test results of AZA+soybean oil as compared with AZA+PYR+soybean oil.

[3] = Azadirachtin A/B 0.50% + Bifenthrin 2.01%, 1 Month/40° C.
[4] = Azadirachtin A/B 0.50% + Bifenthrin 2.01%, 1 Month/Ambient
[5] = Azadirachtin A/B 1.50% + 1.50% second active, 1 Month/40° C.
[6] = Azadirachtin A/B 1.50% + 1.50% second active, 1 Month/Ambient
[7] = Azadirachtin A/B 1.75% + Bifenthrin 1.00%, 1 Month/40° C.
[8] = Azadirachtin A/B 2.00% + Bifenthrin 0.50%, 1 Month/40° C.

| Molecule | Live potato aphids on tomatoes (aphid mean numbers) (potato aphids; 0 DAT1) | Live potato aphids on tomatoes (aphid mean numbers) (potato aphids; 0 DAT2) | Live potato aphids on tomatoes (aphid mean numbers) (potato aphids; 3 DAT1) | Live potato aphids on tomatoes (aphid mean numbers) (potato aphids; 3 DAT2) | Live potato aphids on tomatoes (aphid mean numbers) (potato aphids; 7 DAT1) | Live potato aphids on tomatoes (aphid mean numbers) (potato aphids; 7 DAT2) | % Decomposition of AZA A and PYR [1, 3] | % Decomposition of AZA A and PYR [1, 4] | % Decomposition of AZA A and PYR [1, 5] | % Decomposition of AZA A and PYR [1, 6] | % Decomposition of AZA A and PYR [1, 7] | % Decomposition of AZA A and PYR [1, 8] | % Decomposition of AZA A and PYR ([1]; Bifenthrin only 3.01% AI, 1 Month/40° C.) | loss of AZA A (percent of AZA A decomposition) ([1]; 1:1 mole ratio zeta cypermethrin to AZA A, accelerated aging test of 30 days at 40° C., FIG. 3) | loss of AZA A [1] | % Decomposition of AZA A and PYR ([1]; Azadirachtin A/B only 3.01% AI, 1 Month/40° C.) | AZA A Stability in Formulation ([2]; AZA A/B 0.50% + Bifenthrin 2.00%) | AZA A Stability in Formulation ([2]; AZA A/B 0.50% + Permethrin 2.00%) | AZA A Stability in Formulation ([2]; AZA A/B 0.50% + Z-Cypermethrin 2.00%) | AZA A Stability in Formulation ([2]; AZA A/B 3.00% alone) |
| --- | --- | --- | --- | --- | --- | --- | --- | --- | --- | --- | --- | --- | --- | --- | --- | --- | --- | --- | --- | --- |
| Cc1c(COC(=O)[C@@H]2[C@H](/C=C(\Cl)C(F)(F)F)C2(C)C)cccc1-c1ccccc1 (racemic) [Bifenthrin, bifenthrin] | 357 a | 162 b | 131 b | 89 b | 179 b | 64 b | −2.67% | −2.42% | −2.96% | −2.82% | −2.21% | −0.82% | −2.54% |  |  |  |  |  |  |  |
| C/C=C(\C)C(=O)O[C@H]1C[C@@H](OC(C)=O)[C@@]2(C(=O)OC)CO[C@@H]3C2[C@]12CO[C@@](O)(C(=O)OC)[C@H]2[C@](C)(C12OC1(C)C1C[C@H]2O[C@@H]2OC=CC12O)[C@@H]3O (stereo partly drawn) [AZA A, azadirachtin A] |  |  |  |  |  |  |  |  |  |  |  |  |  | 1% | more than 12% |  |  |  |  |  |
| azadirachtin [Azadirachtin A/B] | 338 a | 11 c | 120 b | 3 c | 18 c | 1 c | −4.30% | −1.03% | −4.20% | −0.14% | −7.37% | −7.61% |  |  | 12.64% | −12.64% | −54.27% | −52.62% | −48.25% | −27.02% |
